Where no end group is shown, it is not given here.
Columns and labels:
DRB1*0301 (DR3) = DRB1*0301 (DR3) (Homo sapiens, UniProt P01903+P01911, A100K/A102G/A103R/A169T/F55Y/I96L/K41T/L162R/M171V/P40S/Q125H/Q178H/Q39Y/R42S/S66N/T106N/T262R/W38E/Y61H); assay: HLA class II binding assay, purified HLA molecules; conditions: Table XXX
CD8+ T-cells = assay: Primary in vitro CTL induction with peptide-pulsed DC, 51Cr release and in situ IFNγ assays; type: cell-based, human
Protocol: The colon adenocarcinoma cell lines SW403 and HT-29 were obtained from the American Type Culture Collection (ATCC) (Rockville, MD). The cell lines that were obtained from ATCC were maintained under the culture conditions recommended by the supplier. […] The colon cancer cells were treated with 100U/ml IFNγ (Genzyme) for 48 hours at 37°C before use as targets in the ^51Cr release and in situ IFNγ assays.
The monocytes were purified by plating 10 x 10^6 PBMC/well in a 6-well plate. After 2 hours at 37°C, the non-adherent cells were removed by gently shaking the plates and aspirating the supernatants. The wells were washed a total of three times with 3 ml RPMI to remove most of the non-adherent and loosely adherent cells. Three ml of complete medium containing 50 ng/ml of GM-CSF and 1,000 U/ml of IL 4 were then added to each well. […]
Induction of CTL with DC and Peptide: CD8+ T-cells were isolated by positive selection with Dynal immunomagnetic beads (Dynabeads® M-450) and the detacha-bead® reagent. […] The DC were collected and centrifuged at 1300 rpm for 5-7 minutes, washed once with PBS with 1% BSA, counted and pulsed with 40µg/ml of peptide at a cell concentration of 1-2×10^6/ml in the presence of 3µg/ml ß2- microglobulin for 4 hours at 20°C. The DC were then irradiated (4,200 rads), washed 1 time with medium and counted again. […]

Chain of DRB1*0301 (DR3) (P01903 26-254 limits assumed, other chains not shown): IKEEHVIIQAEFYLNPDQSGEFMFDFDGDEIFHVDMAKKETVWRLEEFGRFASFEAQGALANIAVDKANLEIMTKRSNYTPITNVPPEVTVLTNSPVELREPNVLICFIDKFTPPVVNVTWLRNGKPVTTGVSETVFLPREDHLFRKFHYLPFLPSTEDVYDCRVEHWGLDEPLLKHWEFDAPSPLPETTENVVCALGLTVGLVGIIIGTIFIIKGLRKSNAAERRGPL

IC50 (DRB1*0301 (DR3)) [µM] | Compound | recognition of wild-type peptide and of tumor targets that endogenously express HER2/neu by the induced CTLs (CD8+ T-cells; expanded positive cultures) | induction of peptide-specific CTL response (CD8+ T-cells; normal donors, peptide-pulsed targets)
4.22 | CSCC[C@H](NC(=O)[C@H](CCCNC(=N)N)NC(=O)[C@H](CO)NC(=O)[C@H](Cc1ccccc1)NC(=O)[C@H](CCC(=O)O)NC(=O)[C@H](CO)NC(=O)[C@@H](NC(=O)[C@H](CC(C)C)NC(=O)[C@H](CCC(=O)O)NC(=O)[C@H](CCCNC(=N)N)NC(=O)[C@@H](N)Cc1ccccc1)C(C)C)C(=O)N[C@@H](C)C(=O)N[C@@H](CCCNC(=N)N)C(=O)N[C@@H](CC(=O)O)C(=O)N1CCC[C@H]1C(=O)O [Her2/neu.969] |  | 
 | CC(C)C[C@H](NC(=O)[C@H](CO)NC(=O)CNC(=O)[C@H](Cc1ccccc1)NC(=O)[C@@H](NC(=O)[C@@H](N)CCCCN)C(C)C)C(=O)N[C@@H](C)C(=O)N[C@@H](Cc1ccccc1)C(=O)N[C@H](C(=O)O)C(C)C [V2V9] | also recognized the target tumor cells | induced peptide-specific CTLs
5.77 | SLSFLQDIQEVQGYV [Her2/neu.70] |  | 
